Results on 29 compounds are retold here after patent US20240124504A1, “AROMATIC HETEROCYCLIC COMPOUND, AND PHARMACEUTICAL COMPOSITION AND APPLICATION THEREOF” (GT APEIRON THERAPEUTICS LIMITED, priority 2020, published 2024).

Experiment [1] concerns the target T1, CDK12 (aa686-1082)/cyclinK complex (Homo sapiens, UniProt Q9NYV4).
T1 construct: A CDK12 (aa686-1082)/cyclinK complex (50 nM)
The experiment can be described thus: In-vitro enzymatic inhibitory activity testing, CDK12 inhibition assay (Caliper EZ Reader II). In kind it is biochemical. Particulars: CDK12/cyclinK 50 nM, 180 min at 27° C.; read-out: CDK12 IC50. Summed up: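 Caliper EZ Reader II mobility-shift separation of 5-FAM-CDK9tide substrate (2 μM) from phosphoproduct, using 50 nM CDK12 (aa686-1082)/cyclinK in 80 mM MES pH 6.5, 10 mM MgCl2, 0.01% Tween 20, 50 ug/mL BSA. Compound pre-incubated 10 min with enzyme, then substrate/ATP added for 180 min at 27° C; EDTA stop. IC50 by nonlinear dose-response regression.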

In a further experiment the target is CDK9/cyclinT1 complex (Homo sapiens, UniProt P50750). Briefly: In-vitro enzymatic inhibitory activity testing, CDK9 inhibition assay (Caliper EZ Reader II). The class given is biochemical. The note with it: CDK9/cyclinT1 8 nM, 180 min at 27° C. The method, boiled down:
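Enzyme preincubated 10 min with compound, then peptide substrate plus ATP added in 80 mM MES pH 6.5, 10 mM MgCl2 buffer; 180 min at 27 °C, stopped with EDTA.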

As a reminder, the IC50 is the concentration at which inhibition is half-maximal.

Structures are written as SMILES.

T1 sequence (Q9NYV4 686-1082, species assumed): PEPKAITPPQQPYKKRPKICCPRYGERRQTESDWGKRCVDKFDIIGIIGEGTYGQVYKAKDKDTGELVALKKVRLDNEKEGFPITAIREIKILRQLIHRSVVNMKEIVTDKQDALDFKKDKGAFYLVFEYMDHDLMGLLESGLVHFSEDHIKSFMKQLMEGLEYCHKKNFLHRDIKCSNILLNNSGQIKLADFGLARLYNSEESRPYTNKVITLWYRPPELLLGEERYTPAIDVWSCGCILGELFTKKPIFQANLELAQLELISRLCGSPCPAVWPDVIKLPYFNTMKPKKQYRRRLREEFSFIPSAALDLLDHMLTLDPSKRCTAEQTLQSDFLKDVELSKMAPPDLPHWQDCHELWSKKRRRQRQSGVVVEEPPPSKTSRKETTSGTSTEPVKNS
T1 sequence (O75909 whole entry partner, species assumed, the tested form may be a part): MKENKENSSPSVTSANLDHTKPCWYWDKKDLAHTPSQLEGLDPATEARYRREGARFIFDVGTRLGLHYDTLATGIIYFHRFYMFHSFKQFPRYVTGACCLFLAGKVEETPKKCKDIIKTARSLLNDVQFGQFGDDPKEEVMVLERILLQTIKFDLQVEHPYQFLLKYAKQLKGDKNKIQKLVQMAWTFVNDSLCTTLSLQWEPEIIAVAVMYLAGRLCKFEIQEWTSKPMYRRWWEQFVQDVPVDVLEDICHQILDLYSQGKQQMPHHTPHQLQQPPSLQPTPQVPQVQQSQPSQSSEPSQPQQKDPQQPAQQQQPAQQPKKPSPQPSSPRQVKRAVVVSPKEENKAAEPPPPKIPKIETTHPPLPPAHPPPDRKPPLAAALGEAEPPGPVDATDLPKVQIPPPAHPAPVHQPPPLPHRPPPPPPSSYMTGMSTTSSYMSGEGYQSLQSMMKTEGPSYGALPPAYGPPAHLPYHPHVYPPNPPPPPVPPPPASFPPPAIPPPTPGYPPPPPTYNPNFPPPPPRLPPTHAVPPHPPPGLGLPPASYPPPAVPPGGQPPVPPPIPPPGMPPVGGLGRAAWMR
Chain of CDK9/cyclinT1 complex (P50750 whole entry, species assumed): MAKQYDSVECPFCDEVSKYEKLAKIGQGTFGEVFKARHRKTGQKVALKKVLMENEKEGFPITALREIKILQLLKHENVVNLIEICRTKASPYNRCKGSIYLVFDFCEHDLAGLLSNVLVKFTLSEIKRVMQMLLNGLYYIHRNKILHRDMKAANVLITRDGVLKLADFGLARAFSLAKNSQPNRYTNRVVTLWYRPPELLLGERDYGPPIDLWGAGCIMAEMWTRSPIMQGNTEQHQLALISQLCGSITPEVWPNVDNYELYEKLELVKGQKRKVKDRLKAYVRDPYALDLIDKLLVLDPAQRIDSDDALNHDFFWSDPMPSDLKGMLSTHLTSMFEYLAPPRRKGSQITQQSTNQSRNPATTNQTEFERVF
Chain of CDK9/cyclinT1 complex (O60563 whole entry partner, species assumed): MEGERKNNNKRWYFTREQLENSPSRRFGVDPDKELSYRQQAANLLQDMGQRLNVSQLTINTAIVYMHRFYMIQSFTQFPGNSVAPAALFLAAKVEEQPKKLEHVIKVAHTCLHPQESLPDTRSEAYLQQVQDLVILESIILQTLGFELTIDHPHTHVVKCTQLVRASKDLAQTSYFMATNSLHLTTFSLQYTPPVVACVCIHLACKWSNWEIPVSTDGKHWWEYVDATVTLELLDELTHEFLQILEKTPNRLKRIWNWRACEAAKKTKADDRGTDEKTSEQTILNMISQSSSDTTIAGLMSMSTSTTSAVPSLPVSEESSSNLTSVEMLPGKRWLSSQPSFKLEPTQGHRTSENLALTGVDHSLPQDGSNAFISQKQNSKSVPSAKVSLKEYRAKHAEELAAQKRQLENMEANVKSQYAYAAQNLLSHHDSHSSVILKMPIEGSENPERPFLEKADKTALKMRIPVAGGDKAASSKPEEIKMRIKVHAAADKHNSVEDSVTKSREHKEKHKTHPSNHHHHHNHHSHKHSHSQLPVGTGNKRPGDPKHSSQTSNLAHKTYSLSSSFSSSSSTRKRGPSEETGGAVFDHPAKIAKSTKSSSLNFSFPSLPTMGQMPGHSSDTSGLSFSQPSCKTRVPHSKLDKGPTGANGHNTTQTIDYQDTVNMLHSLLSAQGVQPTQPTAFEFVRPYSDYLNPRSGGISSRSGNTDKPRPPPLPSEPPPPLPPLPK

In the case of `CP(C)(=O)c1cccc2c(-c3nc(NC4(CO)CCOC4)ncc3C(F)(F)F)c[nH]c12` (single isomer, unassigned) [Compound 118], the IC50 (in experiment [1]; on CDK9/cyclinT1 complex) was over 50 µM in each case.
Regarding `CP(C)(=O)c1cccc2c(-c3nc(NCC4CC4CO)ncc3C(F)(F)F)c[nH]c12` (single isomer, unassigned) [Compound 143], the IC50 (in experiment [1]; on CDK9/cyclinT1 complex) was over 50 µM throughout.
On to `CP(C)(=O)c1cccc2c(-c3nc(N[C@H]4CC[C@@H]4O)ncc3C(F)(F)F)c[nH]c12` [Compound 154, (3-(2-(((1S,2S)-2-hydroxycyclobutyl)amino)-5-(trifluoromethyl)pyrimidin-4-yl)-1hydro-indole-7-yl)dimethylphosphine oxide], for which the IC50 (in experiment [1]; against CDK9/cyclinT1 complex) was 5 to 50 µM in each case.
Consider `CP(C)(=O)c1cccc2c(-c3nc(N[C@H]4CC[C@H](O)C4)ncc3C(F)(F)F)c[nH]c12` [Compound 83], for which the IC50 (in experiment [1]; on CDK9/cyclinT1 complex) was 5 to 50 µM each time.
`CP(C)(=O)c1cccc2c(-c3nc(NCCCO)ncc3C(F)(F)F)c[nH]c12` [Compound 89, (3-(2-((3-hydroxypropyl)amino)-5-(trifluoromethyl)pyrimidin-4-yl)-1H-indole-7-yl)dimethylphosphine oxide]: the IC50 (in experiment [1]; on CDK9/cyclinT1 complex) was over 50 µM each time.
Consider `CP(C)(=O)c1cccc2c(-c3nc(N[C@H]4CCC[C@@H]4O)ncc3C(F)(F)F)c[nH]c12` [Compound 155, (3-(2-(((1S,2S)-2-hydroxycyclopentyl)amino)-5-(trifluoromethyl)pyrimidin-4-yl)-1hydro-indole-7-yl)dimethylphosphine oxide], for which the half-maximal inhibitory concentration (IC50) (in experiment [1]; at CDK9/cyclinT1 complex) was 5 to 50 µM throughout.
Consider `CP(C)(=O)c1cccc2c(-c3nc(NC4(CO)COC4)ncc3C(F)(F)F)c[nH]c12` [Compound 114, (3-(2-((3-(hydroxymethyl)oxetan-3-yl)amino)-5-(trifluoromethyl)pyrimidin-4-yl)-1H-indole-7-yl)dimethylphosphine oxide], for which the IC50 (in experiment [1]; against CDK9/cyclinT1 complex) was over 50 µM throughout.
Take `CP(C)(=O)c1cccc2c(-c3nc(NC4(CO)CCC4)ncc3C(F)(F)F)c[nH]c12` [Compound 168, (3-(2-((1-(hydroxymethyl)cyclobutyl)amino)-5-(trifluoromethyl)pyrimidin-4-yl)-1H-indole-7-yl)dimethylphosphine oxide]: the IC50 (in experiment [1]; on CDK9/cyclinT1 complex) was over 50 µM throughout.
`C[C@H](CO)Nc1ncc(C(F)(F)F)c(-c2c[nH]c3c(P(C)(C)=O)cccc23)n1` [Compound 93, (R)-(3-(2-((1-hydroxypropyl-2-yl)amino)-5-(trifluoromethyl)pyrimidin-4-yl)-1H-indole-7-yl)dimethylphosphine oxide]: the IC50 is 5 to 50 µM in experiment [1] and over 50 µM on CDK9/cyclinT1 complex.
The like results for `CP(C)(=O)c1cccc2c(-c3nc(NC45CC(O)(C4)C5)ncc3C(F)(F)F)c[nH]c12` [Compound 174, (3-(2-((3-hydroxybicyclo[1.1.1]pentan-1-yl)amino)-5-(trifluoromethyl)pyrimidin-4-yl)-1H-indole-7-yl)dimethylphosphine oxide] were, in that order, 0.2 to 5 µM and 5 to 50 µM.
Regarding `CP(C)(=O)c1cccc2c(-c3nc(NC[C@H]4C[C@](C)(O)C4)ncc3C(F)(F)F)c[nH]c12` [Compound 127, (3-(2-(((trans-3-hydroxy-3-methylcyclobutyl)methyl)amino)-5-(trifluoromethyl)pyrimidin-4-yl)-1H-indole-7-yl)dimethylphosphine oxide], the IC50 (in experiment [1]; at CDK9/cyclinT1 complex) was over 50 µM each time.
With `CP(C)(=O)c1cccc2c(-c3nc(NCCO)ncc3C(F)(F)F)c[nH]c12` [Compound 97, (3-(2-((2-hydroxyethyl)amino)-5-(trifluoromethyl)pyrimidin-4-yl)-1H-indole-7-yl)dimethylphosphine oxide], the IC50 (in experiment [1]; against CDK9/cyclinT1 complex) was over 50 µM in each case.
As to `CP(C)(=O)c1cccc2c(-c3nc(N[C@@H]4CC[C@H]4O)ncc3C(F)(F)F)c[nH]c12` [Compound 153, (3-(2-(((1R,2R)-2-hydroxycyclobutyl)amino)-5-(trifluoromethyl)pyrimidin-4-yl)-1hydro-indole-7-yl)dimethylphosphine oxide], the IC50 (in experiment [1]; against CDK9/cyclinT1 complex) was over 50 µM throughout.
With `CC1(C)COCC(Nc2ncc(C(F)(F)F)c(-c3c[nH]c4c(P(C)(C)=O)cccc34)n2)CN1` (single isomer, unassigned) [Compound 91, (3-(2-((3,3-dimethyl-1,4-oxazepan-6-yl)amino)-5-(trifluoromethyl)pyrimidin-4-yl)-1H-indole-7-yl)dimethylphosphine oxide], the values for the concentration for half-maximal inhibition (IC50) (in experiment [1]; on CDK9/cyclinT1 complex) were 5 to 50 µM and over 50 µM, respectively.
For the compound `C[C@@H](CO)Nc1ncc(C(F)(F)F)c(-c2c[nH]c3c(P(C)(C)=O)c(C#N)ccc23)n1` [Compound 79, (S)-7-(dimethylphosphoryl)-3-(2-((1-hydroxy-propan-2-yl)amino)-5-(trifluoromethyl)pyrimidin-4-yl)-1H-indole-6-carbonitrile], the IC50 (in experiment [1]; against CDK9/cyclinT1 complex) was over 50 µM each time.
Turning to `CN(C)[C@H]1CC[C@H](Nc2ncc(C(F)(F)F)c(-c3c[nH]c4c(P(C)(C)=O)cccc34)n2)C1` [Compound 137, (3-(2-(((1S,3S)-3-(dimethylamino)cyclopentyl)amino)-5-(trifluoromethyl)pyrimidin-4-yl)-1H-indole-7-yl)dimethylphosphine oxide], the IC50 lay in the range of 0.2 to 5 µM in experiment [1] and 5 to 50 µM against CDK9/cyclinT1 complex.
On to `CC(CO)CNc1ncc(C(F)(F)F)c(-c2c[nH]c3c(P(C)(C)=O)cccc23)n1` (single isomer, unassigned) [Compound 149], for which the IC50 (in experiment [1]; on CDK9/cyclinT1 complex) was over 50 µM throughout.
On to `C[C@@H](CO)Nc1ncc(Cl)c(-c2c[nH]c3c(P(C)(C)=O)cccc23)n1` [Compound 103, (S)-(3-(5-chloro-2-((1-hydroxypropan-2-yl)amino)pyrimidin-4-yl)-1H-indole-7-yl)dimethylphosphine oxide], for which the concentration for half-maximal inhibition (IC50) (in experiment [1]; against CDK9/cyclinT1 complex) was over 50 µM throughout.
For `CC(C)(CO)Nc1ncc(C(F)(F)F)c(-c2c[nH]c3c(P(C)(C)=O)cccc23)n1` [Compound 85, (3-(2-((1-hydroxy-2-methylpropan-2-yl)amino)-5-(trifluoromethyl)pyrimidin-4-yl)-1H-indole-7-yl)dimethylphosphine oxide], the concentration for half-maximal inhibition (IC50) (in experiment [1]; at CDK9/cyclinT1 complex) was over 50 µM each time.
`C[C@@H](CO)Nc1ncc(C(F)(F)F)c(-c2c[nH]c3c(P(C)(C)=O)c(F)ccc23)n1` [Compound 195]: the figures for the IC50 (in experiment [1]; against CDK9/cyclinT1 complex) were 5 to 50 µM and over 50 µM, respectively.
On the same counts, the results for `C[C@@H](CO)Nc1ncc(C(F)(F)F)c(-c2c[nH]c3c(P(C)(C)=O)cc(F)cc23)n1` [Compound 158] are over 50 µM and over 50 µM.
The like results for `CP(C)(=O)c1cccc2c(-c3nc(NC[C@H](F)CO)ncc3C(F)(F)F)c[nH]c12` [Compound 86, (S)-(3-(2-((2-fluoro-3-hydroxypropyl)amino)-5-(trifluoromethyl)pyrimidin-4-yl)-1H-indole-7-yl)dimethylphosphine oxide] were, in that order, over 50 µM and over 50 µM.
The like results for `CP(C)(=O)c1cccc2c(-c3nc(N[C@H]4COC[C@@H]4O)ncc3C(F)(F)F)c[nH]c12` [Compound 87] were, in that order, over 50 µM and over 50 µM.
`C[C@@H](CO)Nc1ncc(C(F)(F)F)c(-c2c[nH]c3c(P(C)(C)=O)cccc23)n1` [Compound 82, (S)-(3-(2-((1-hydroxypropyl-2-yl)amino)-5-(trifluoromethyl)pyrimidin-4-yl)-1H-indole-7-yl)dimethylphosphine oxide]: the figures for the concentration for half-maximal inhibition (IC50) (in experiment [1]; against CDK9/cyclinT1 complex) were 5 to 50 µM and over 50 µM, respectively.
`CP(C)(=O)c1cccc2c(-c3nc(NCC4CC(O)C4)ncc3C(F)(F)F)c[nH]c12` (stereo not shown) [Compound 126, (3-(2-(((3-hydroxycyclobutyl)methyl)amino)-5-(trifluoromethyl)pyrimidin-4-yl)-1H-indole-7-yl)dimethylphosphine oxide]: the IC50 (in experiment [1]; at CDK9/cyclinT1 complex) was over 50 µM each time.
For `CP(C)(=O)c1cccc2c(-c3nc(NCC(F)(F)CO)ncc3C(F)(F)F)c[nH]c12` [Compound 102, (3-(2-((2,2-difluoro-3-hydroxypropyl)amino)-5-(trifluoromethyl)pyrimidin-4-yl)-1H-indole-7-yl)dimethylphosphine oxide], the IC50 (in experiment [1]; against CDK9/cyclinT1 complex) was over 50 µM each time.
Regarding `CP(C)(=O)c1cccc2c(-c3nc(NC4(CO)CC(F)(F)C4)ncc3C(F)(F)F)c[nH]c12` [Compound 96, (3-(2-((3,3-difluoro-1-(hydroxymethyl)cyclobutyl)amino)-5-(trifluoromethyl)pyrimidin-4-yl)-1H-indole-7-yl)dimethylphosphine oxide], the IC50 (in experiment [1]; on CDK9/cyclinT1 complex) was over 50 µM in each case.
For `CP(C)(=O)c1cccc2c(-c3nc(NC4(CO)CC4)ncc3C(F)(F)F)c[nH]c12` [Compound 94, (3-(2-((1-(hydroxymethyl)cyclopropyl)amino)-5-(trifluoromethyl)pyrimidin-4-yl)-1H-indole-7-yl)dimethylphosphine oxide], the IC50 (in experiment [1]; on CDK9/cyclinT1 complex) was over 50 µM each time.
With `CP(C)(=O)c1cccc2c(-c3nc(N[C@@H]4CCC[C@H]4O)ncc3C(F)(F)F)c[nH]c12` [Compound 156], the concentration for half-maximal inhibition (IC50) (in experiment [1]; on CDK9/cyclinT1 complex) was 5 to 50 µM throughout.
